Values quoted from earlier work as cited in patent US12394803B2, “Production method of catalyst, catalyst, production method of composition, composition, electrode, manufacturing method of electrode, fuel cell, metal-air battery” (Azul Energy Inc., priority 2019, dated 2025).

Settings: background statement on Patent Document 1

Solubility in 2-propanol: low solubility
SMILES: [Fe+2].c1ccc2c(c1)-c1nc-2nc2[n-]c(nc3nc(nc4[n-]c(n1)c1ccccc41)-c1ccccc1-3)c1ccccc21 [Iron phthalocyanines, Iron phthalocyanine]
